In article PMC9320886, “Daily Intraperitoneal Administration of Rosiglitazone Does Not Improve Lung Function or Alveolarization in Preterm Rabbits Exposed to Hyperoxia” (Pharmaceutics, 2022):
Read-outs that look alike come from different tables or passages of the source.

How the values were obtained:
[1] = Caco-2 permeability assay; assay type: in vitro ADME; conditions: human, apical to basolateral
Procedure: Caco-2 cells were purchased from ReadyCell (Barcelona, Spain). The cells arrived already seeded and differentiated (21-days) in 96-well plates (CacoReady 96-well kits, ReadyCell). Cells were maintained in a cell culture medium: Dulbecco’s modified Eagle’s medium (DMEM) 1 g/L glucose containing 10% fetal bovine serum, 1% L-glutamine 200 mM, and 1% penicillin (10,000 U/mL)–streptomycin (10 mg/mL), all from Merck KGaA. The buffer used in the assay was Hanks Balanced Salt Solution (HBSS, Merck). Control compounds were: sulpiride (low permeability control), metoprolol (high permeability control), talinolol (P-glycoprotein transport (Pgp) substrate control), and GF120918 (Elacridar, Pgp inhibitor), all purchased from Merck KGaA.
The day of the experiment, the integrity of the cell monolayers was assessed before and after the assay by measuring the transepithelial electrical resistance (TEER). The permeability of the compounds across the cell monolayer was determined by measuring their transport in both directions: apical to basolateral (A → B) and basolateral to apical (B → A) in the absence and presence of Elacridar (a known P-gp inhibitor). The donor working solution was prepared by dilution of the DMSO stock of the test compound or positive control with HBSS (pH 7.4) to 10 µM. For A → B directional transport, the donor working solution (with test compound or positive control, with or without P-gp inhibitor) was added to the apical (A) and HBSS was added to the basolateral (B) compartment. For B → A directional transport, the donor working solution (with positive control or test compound […], with or without P-gp inhibitor) was added to the basolateral (B) and HBSS was added to the apical (A) compartment. The assay was performed with a Hamilton Star Lab robotic system. Samples were collected at t0 and 2 h after incubation (5% CO2, 95% relative humidity, 37 °C) for LC-MS/MS analyses.
Apparent permeability (Papp) was calculated with the following equation: (5) Papp(cm/sec)=(Vr/C0)×(1/A)×(Cr(t)/t) where Vr is the volume of the solution in the receiving compartment (mL); C0 is the initial test compound concentration in the donor compartment (expressed as area ratio); A is the membrane surface area (0.14 cm^2); Cr (t) is the measured concentration of the receiver well at time t120 (expressed as area ratio); and t is time of incubation (sec).

newborn rats = system: newborn rats; parameters: method as in PMID 19262292; conditions: daily i.p. doses as low as 0.3 mg/kg; cited from earlier work

With `CN(CCOc1ccc(CC2SC(=O)NC2=O)cc1)c1ccccn1` (stereo not shown) [RGZ, rosiglitazone] as the molecule, how does the Papp A→B at 2 h, 10 µM ([1]; Caco-2, pH 7.4, with Elacridar (GF120918), concentration not given, with Elacridar, read-out: Papp with Pgp Inhibitor (A–B)) read?
The Papp A→B at 2 h, 10 µM was 16.3 ×10⁻⁶ cm/s.

And the Papp A→B at 2 h, 10 µM ([1]; Caco-2, pH 7.4, 10 µM, 2 h, without Pgp inhibitor, read-out: Papp (A–B))?
The Papp A→B at 2 h, 10 µM was 14.5 ×10⁻⁶ cm/s.

And the alveolarization (newborn rats)?
Its alveolarization is “enhanced”.

And the “surfactant synthesis (lamellar body count, SP-B and SP-C expression)” value (newborn rats)?
Its value is “significantly promoted”.
